Some test systems named below: NCI-H226 lung; RXF 393 renal; T-47D breast; 786-0 renal; A498 renal; CCRF-CEM leukemia; SK-MEL-5 melanoma; SF-295 CNS.
What all share (assay): NCI-60 cell line screen, 48 h

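Growth conditions: 96-well plates. Treatment: test compound, 48 hours, 5 concentrations. Analysis: linear interpolation between bracketing concentrations; unreached endpoints set to highest concentration. Here, GI50 denotes the concentration required for 50% inhibition of growth. At the TGI there is no net growth.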 A value given as a limit tells only on which side of the number the result lay.

Take `CN(C)CCNC(=O)c1cccc2cc3ccccc3nc12`: the GI50 in the test on NCI-H226 lung is 961 nM; in the test on RXF 393 renal, 1420 nM; in the test with T-47D breast, 1950 nM; in the test on 786-0 renal, 1520 nM; in the test with A498 renal, 1260 nM; in the test with CCRF-CEM leukemia it was 1370 nM. In addition, the results for the GI50 with SK-MEL-5 melanoma and with SF-295 CNS were 1250 nM and 1260 nM, respectively. Besides, the TGI is 3850 nM in the test on NCI-H226 lung; 4130 nM in the test with RXF 393 renal; 10600 nM with T-47D breast; 8640 nM in the test on 786-0 renal; 2800 nM with A498 renal; over 32100 nM with CCRF-CEM leukemia. Besides, the results for the TGI in the test on SK-MEL-5 melanoma and in the test on SF-295 CNS were 2540 nM and 4620 nM, respectively.
For the molecule `Cc1ccc(S(=O)(=O)N2CCSCCSCCN(S(=O)(=O)c3ccc(C)cc3)CCN(S(=O)(=O)c3ccc(C)cc3)CC2)cc1`, the TGI in the test on NCI-H226 lung, with RXF 393 renal, in the test on T-47D breast, in the test with 786-0 renal, in the test on A498 renal and in the test on CCRF-CEM leukemia was over 100000 nM each time. Besides, the TGI in the test on SK-MEL-5 melanoma and in the test with SF-295 CNS was over 100000 nM throughout.
As for `COc1cc2c3c(n(CCN)c(=O)c2cc1OC)-c1cc2c(cc1C3=O)OCO2`, the GI50 in the test on NCI-H226 lung is 769 nM; with RXF 393 renal, 1540 nM; in the test on T-47D breast it was 143 nM; with 786-0 renal, 140 nM; with A498 renal it was 3480 nM; in the test with CCRF-CEM leukemia, under 10 nM. Besides, the GI50 is under 10 nM in the test with SK-MEL-5 melanoma and under 35.2 nM in the test on SF-295 CNS. In addition, the TGI in the test on NCI-H226 lung was 2550 nM; in the test on RXF 393 renal, 4060 nM; in the test with T-47D breast, 1360 nM; with 786-0 renal, 502 nM; in the test on A498 renal, 18900 nM; in the test with SK-MEL-5 melanoma, 97.5 nM. This molecule showed a TGI in the test with SF-295 CNS of 2090 nM.
As for `COc1ccc(-c2cnc(-c3ccc(F)cc3)[nH]2)cc1`, the GI50 in the test on NCI-H226 lung is 11000 nM; in the test on RXF 393 renal it was 2200 nM; with T-47D breast it was 8390 nM; in the test on 786-0 renal, 6140 nM; with A498 renal it was 2200 nM; in the test with CCRF-CEM leukemia, 18100 nM. In addition, the results for the GI50 with SK-MEL-5 melanoma and with SF-295 CNS were 7810 nM and 1540 nM, respectively. In addition, the TGI with NCI-H226 lung was over 62300 nM; in the test on RXF 393 renal, 5590 nM; in the test on T-47D breast, 36400 nM; with 786-0 renal, 12300 nM; with A498 renal, 6170 nM; in the test with CCRF-CEM leukemia, over 89400 nM. Also, the figures for the TGI in the test on SK-MEL-5 melanoma and in the test on SF-295 CNS were 20700 nM and 3430 nM, respectively.
As to `CCOC(=O)/C=C1\SC(=Nc2ccc(C#N)cc2)N(CCN2C(=O)/C(=C/C(=O)OCC)SC2=Nc2ccc(C#N)cc2)C1=O`, the GI50 is 3530 nM in the test on NCI-H226 lung; 2610 nM in the test on RXF 393 renal; 2370 nM with T-47D breast; 2080 nM with 786-0 renal; 6820 nM in the test with A498 renal; 613 nM in the test with CCRF-CEM leukemia. The GI50 is 5430 nM in the test with SK-MEL-5 melanoma and 5590 nM in the test on SF-295 CNS. Besides, the TGI was 14300 nM in the test on NCI-H226 lung; 9390 nM in the test with RXF 393 renal; 41200 nM in the test with T-47D breast; 6330 nM with 786-0 renal; 20500 nM with A498 renal; 16900 nM with CCRF-CEM leukemia. For the same molecule, the TGI in the test with SK-MEL-5 melanoma turned out to be 18900 nM; with SF-295 CNS it was 25600 nM.
As for `Nc1ccc(C#Cc2cncnc2Nc2ccc(OCc3cccc(F)c3)c(Cl)c2)cc1`, the GI50 is 10600 nM with NCI-H226 lung; 5000 nM with RXF 393 renal; 6170 nM with T-47D breast; 17400 nM in the test with 786-0 renal; 1700 nM in the test on A498 renal; 5720 nM in the test on CCRF-CEM leukemia. For the same molecule, the GI50 in the test on SK-MEL-5 melanoma was over 15800 nM; with SF-295 CNS, 10600 nM. In addition, the TGI in the test with NCI-H226 lung was over 25000 nM; in the test with RXF 393 renal, over 25000 nM; with T-47D breast, over 25000 nM; in the test with 786-0 renal it was over 25000 nM; in the test with A498 renal, over 15400 nM; in the test on CCRF-CEM leukemia it was over 25000 nM. Besides, the TGI in the test on SK-MEL-5 melanoma and in the test with SF-295 CNS was over 25000 nM throughout.
With `C=C(CN1CCN(c2cccc(C(F)(F)F)c2)CC1)c1ccc(C(=O)Nc2ccccc2N)cc1`, the GI50 in the test on NCI-H226 lung was 1890 nM; in the test with RXF 393 renal it was 1620 nM; with T-47D breast it was 13200 nM; in the test on 786-0 renal, 1100 nM; in the test on A498 renal, 5 nM; in the test on CCRF-CEM leukemia, 335 nM. Further, the GI50 in the test on SK-MEL-5 melanoma was 568 nM; with SF-295 CNS, 537 nM. Moreover, the TGI with NCI-H226 lung was 20100 nM; in the test on T-47D breast, over 50000 nM; with 786-0 renal, 8960 nM; in the test with A498 renal, 5180 nM; with CCRF-CEM leukemia, over 50000 nM; with SK-MEL-5 melanoma, 6720 nM. In addition, the TGI in the test on SF-295 CNS is 3880 nM.
In the case of `CS(=O)(=O)N1CCN(Cc2cc3nc(-c4cccc5[nH]ncc45)nc(N4CCOCC4)c3s2)CC1` (tested in a mixture with another compound), the GI50 with NCI-H226 lung is 374 nM; with RXF 393 renal, 79.2 nM; in the test with T-47D breast, 20.7 nM; with 786-0 renal, 37 nM; in the test with A498 renal, 136 nM; in the test on CCRF-CEM leukemia, 272 nM. Besides, the GI50 was 201 nM with SK-MEL-5 melanoma and 62 nM in the test on SF-295 CNS. Further, the TGI with RXF 393 renal is 371 nM; in the test on T-47D breast, 105 nM; in the test on 786-0 renal, 148 nM; in the test with A498 renal, 774 nM; in the test on SK-MEL-5 melanoma, 638 nM; in the test on SF-295 CNS, 468 nM.
Consider `CC[N+](CC)=c1ccc2nc3c(cc(NCc4ccccc4)c4ccccc43)oc-2c1`, for which the GI50 in the test with NCI-H226 lung is 358 nM; in the test with RXF 393 renal, 781 nM; in the test with T-47D breast, 337 nM; in the test on 786-0 renal it was 497 nM; in the test with A498 renal, 751 nM; with CCRF-CEM leukemia, 476 nM. Besides, the GI50 in the test with SK-MEL-5 melanoma was 147 nM; in the test with SF-295 CNS, 200 nM. The TGI amounted to 1830 nM in the test with NCI-H226 lung; 2120 nM in the test with RXF 393 renal; 2300 nM with T-47D breast; 1850 nM with 786-0 renal; 4620 nM in the test on A498 renal; 7150 nM in the test on CCRF-CEM leukemia. For the same molecule, the TGI in the test with SK-MEL-5 melanoma amounted to 280 nM; with SF-295 CNS it was 510 nM.

The record behind these values is PubChem BioAssay (NCI).
